Assay results as given in the supplement of paper PMC9663587.

What was measured:
YKL-5-124 = compound: C=CC(=O)Nc1ccc(C(=O)Nc2[nH]nc3c2CN(C(=O)N[C@H](CN(C)C)c2ccccc2)C3(C)C)cc1 [YKL-5-124]; assay: increase in dead-cell fraction, 72 h; higher = more death;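 further: breast cancer cell lines in 384-well plates, stained with Hoechst plus LIVE/DEAD far red dye and imaged, cells above an LDR intensity threshold counted dead, Hoechst-negative corpses included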
BSJ-03-123 = compound: CC(=O)c1c(C)c2cnc(Nc3ccc(N4CCN(CCOCCOCCOCCNC(=O)COc5cccc6c5C(=O)N(C5CCC(=O)NC5=O)C6=O)CC4)cn3)nc2n(C2CCCC2)c1=O [BSJ-03-123]; assay: as above
[1] = compound: CC(=O)c1c(C)c2cnc(Nc3ccc(N4CCNCC4)cn3)nc2n(C2CCCC2)c1=O; assay: as above
[2] = compound: CCN1CCN(Cc2ccc(Nc3ncc(F)c(-c4cc(F)c5nc(C)n(C(C)C)c5c4)n3)nc2)CC1; assay: as above
Neratinib/HKI272 [3] = compound: T1, CCOc1cc2ncc(C#N)c(Nc3ccc(OCc4ccccn4)c(Cl)c3)c2cc1NC(=O)/C=C/CN(C)C [Neratinib/HKI272]; assay: as above
[4] = compound: CCc1cnn2c(NCc3ccc[n+]([O-])c3)cc(N3CCCC[C@H]3CCO)nc12; assay: as above
LEE011/Ribociclib = compound: CN(C)C(=O)c1cc2cnc(Nc3ccc(N4CCNCC4)cn3)nc2n1C1CCCC1 [LEE011/Ribociclib]; assay: as above
THZ531 = compound: CN(C)C/C=C/C(=O)Nc1ccc(C(=O)N2CCC[C@@H](Nc3ncc(Cl)c(-c4c[nH]c5ccccc45)n3)C2)cc1 [THZ531]; assay: as above
THZ1 = compound: CN(C)C/C=C/C(=O)Nc1ccc(C(=O)Nc2cccc(Nc3ncc(Cl)c(-c4c[nH]c5ccccc45)n3)c2)cc1 [THZ1]; assay: as above
Flavopiridol [5] = compound: T2, CN1CC[C@H](c2c(O)cc(O)c3c(=O)cc(-c4ccccc4Cl)oc23)[C@H](O)C1 [Flavopiridol]; assay: as above
Neratinib/HKI272 [6] = compound: T1, Neratinib/HKI272; assay: GR value, 72 h; higher = faster growth (1 = untreated, <0 = killing);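 further: breast cancer and non-malignant breast epithelial lines, nine half-log doses, viable cells counted by Hoechst and LIVE/DEAD dye imaging versus time-zero plates and DMSO controls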
Flavopiridol [7] = compound: T2, Flavopiridol; assay: as above

## HCC38
YKL-5-124; 0.001 µM
  increase in dead-cell fraction: 0.0525
YKL-5-124; 0.003162 µM
  increase in dead-cell fraction: 0.0845
YKL-5-124; 0.01 µM
  increase in dead-cell fraction: 0.102
YKL-5-124; 0.03162 µM
  increase in dead-cell fraction: 0.109
YKL-5-124; 0.1 µM
  increase in dead-cell fraction: 0.115
YKL-5-124; 0.3162 µM
  increase in dead-cell fraction: 0.184
YKL-5-124; 1 µM
  increase in dead-cell fraction: 0.197
YKL-5-124; 3.162 µM
  increase in dead-cell fraction: 0.147
YKL-5-124; 10 µM
  increase in dead-cell fraction: 0.407
BSJ-03-123; 0.001 µM
  increase in dead-cell fraction: 0.0173
BSJ-03-123; 0.003162 µM
  increase in dead-cell fraction: 0.0254
BSJ-03-123; 0.01 µM
  increase in dead-cell fraction: 0.0387
BSJ-03-123; 0.03162 µM
  increase in dead-cell fraction: 0.0378
BSJ-03-123; 0.1 µM
  increase in dead-cell fraction: 0.0296
BSJ-03-123; 0.3162 µM
  increase in dead-cell fraction: 0.0344
BSJ-03-123; 1 µM
  increase in dead-cell fraction: 0.0408
BSJ-03-123; 3.162 µM
  increase in dead-cell fraction: 0.0384
BSJ-03-123; 10 µM
  increase in dead-cell fraction: 0.172
[1]; 0.0003162 µM
  increase in dead-cell fraction: 0.0028
[1]; 0.001 µM
  increase in dead-cell fraction: -0.0069
[1]; 0.003162 µM
  increase in dead-cell fraction: 0.0044
[1]; 0.01 µM
  increase in dead-cell fraction: 0.0202
[1]; 0.03162 µM
  increase in dead-cell fraction: 0.0549
[1]; 0.1 µM
  increase in dead-cell fraction: 0.0669
[1]; 0.3162 µM
  increase in dead-cell fraction: 0.0676
[1]; 1 µM
  increase in dead-cell fraction: 0.0915
[1]; 3.162 µM
  increase in dead-cell fraction: 0.0488
[2]; 0.001 µM
  increase in dead-cell fraction: 0.0177
[2]; 0.003162 µM
  increase in dead-cell fraction: 0.0096
[2]; 0.01 µM
  increase in dead-cell fraction: 0.0258
[2]; 0.03162 µM
  increase in dead-cell fraction: 0.0545
[2]; 0.1 µM
  increase in dead-cell fraction: 0.0758
[2]; 0.3162 µM
  increase in dead-cell fraction: 0.0601
[2]; 1 µM
  increase in dead-cell fraction: 0.0699
[2]; 3.162 µM
  increase in dead-cell fraction: 0.0988
[2]; 10 µM
  increase in dead-cell fraction: 0.415
Neratinib/HKI272 [3]; 0.0003162 µM
  increase in dead-cell fraction: 0.0178
Neratinib/HKI272 [3]; 0.001 µM
  increase in dead-cell fraction: 0.006
Neratinib/HKI272 [3]; 0.003162 µM
  increase in dead-cell fraction: 0.0166
Neratinib/HKI272 [3]; 0.01 µM
  increase in dead-cell fraction: 0.0088
Neratinib/HKI272 [3]; 0.03162 µM
  increase in dead-cell fraction: 0.0102
Neratinib/HKI272 [3]; 0.1 µM
  increase in dead-cell fraction: -0.0035
Neratinib/HKI272 [3]; 0.3162 µM
  increase in dead-cell fraction: 0.0102
Neratinib/HKI272 [3]; 1 µM
  increase in dead-cell fraction: 0.0009
Neratinib/HKI272 [3]; 3.162 µM
  increase in dead-cell fraction: 0.0842
[4]; 0.0001 µM
  increase in dead-cell fraction: -0.0032
[4]; 0.0003162 µM
  increase in dead-cell fraction: -0.0125
[4]; 0.001 µM
  increase in dead-cell fraction: -0.0108
[4]; 0.003162 µM
  increase in dead-cell fraction: -0.0127
[4]; 0.01 µM
  increase in dead-cell fraction: 0.0353
[4]; 0.03162 µM
  increase in dead-cell fraction: 0.436
[4]; 0.1 µM
  increase in dead-cell fraction: 0.514
[4]; 0.3162 µM
  increase in dead-cell fraction: 0.511
[4]; 1 µM
  increase in dead-cell fraction: 0.536
LEE011/Ribociclib; 0.001 µM
  increase in dead-cell fraction: -0.0042
LEE011/Ribociclib; 0.003162 µM
  increase in dead-cell fraction: 0.0013
LEE011/Ribociclib; 0.01 µM
  increase in dead-cell fraction: 0.0118
LEE011/Ribociclib; 0.03162 µM
  increase in dead-cell fraction: 0.0031
LEE011/Ribociclib; 0.1 µM
  increase in dead-cell fraction: 0.0263
LEE011/Ribociclib; 0.3162 µM
  increase in dead-cell fraction: 0.0209
LEE011/Ribociclib; 1 µM
  increase in dead-cell fraction: 0.026
LEE011/Ribociclib; 3.162 µM
  increase in dead-cell fraction: 0.0204
LEE011/Ribociclib; 10 µM
  increase in dead-cell fraction: 0.0467
THZ531; 0.0001 µM
  increase in dead-cell fraction: -0.0063
THZ531; 0.0003162 µM
  increase in dead-cell fraction: 0.0002
THZ531; 0.001 µM
  increase in dead-cell fraction: 0.0018
THZ531; 0.003162 µM
  increase in dead-cell fraction: 0.0016
THZ531; 0.01 µM
  increase in dead-cell fraction: -0.0096
THZ531; 0.03162 µM
  increase in dead-cell fraction: 0.0087
THZ531; 0.1 µM
  increase in dead-cell fraction: 0.0251
THZ531; 0.3162 µM
  increase in dead-cell fraction: 0.156
THZ531; 1 µM
  increase in dead-cell fraction: 0.327
THZ1; 0.0001 µM
  increase in dead-cell fraction: -0.0033
THZ1; 0.0003162 µM
  increase in dead-cell fraction: -0.0036
THZ1; 0.001 µM
  increase in dead-cell fraction: -0.0076
THZ1; 0.003162 µM
  increase in dead-cell fraction: -0.0032
THZ1; 0.01 µM
  increase in dead-cell fraction: 0.0133
THZ1; 0.03162 µM
  increase in dead-cell fraction: 0.0431
THZ1; 0.1 µM
  increase in dead-cell fraction: 0.249
THZ1; 0.3162 µM
  increase in dead-cell fraction: 0.303
THZ1; 1 µM
  increase in dead-cell fraction: 0.593
Flavopiridol [5]; 0.0001 µM
  increase in dead-cell fraction: -0.0026
Flavopiridol [5]; 0.0003162 µM
  increase in dead-cell fraction: -0.0024
Flavopiridol [5]; 0.001 µM
  increase in dead-cell fraction: -0.0081
Flavopiridol [5]; 0.003162 µM
  increase in dead-cell fraction: 0.0129
Flavopiridol [5]; 0.01 µM
  increase in dead-cell fraction: 0.0083
Flavopiridol [5]; 0.03162 µM
  increase in dead-cell fraction: 0.0066
Flavopiridol [5]; 0.1 µM
  increase in dead-cell fraction: 0.0013
Flavopiridol [5]; 0.3162 µM
  increase in dead-cell fraction: 0.112
Flavopiridol [5]; 1 µM
  increase in dead-cell fraction: 0.449
Neratinib/HKI272 [6]; 0.0003162 µM
  GR value: 1.02 GR
Neratinib/HKI272 [6]; 0.001 µM
  GR value: 1.03 GR
Neratinib/HKI272 [6]; 0.003162 µM
  GR value: 0.987 GR
Neratinib/HKI272 [6]; 0.01 µM
  GR value: 0.96 GR
Neratinib/HKI272 [6]; 0.03162 µM
  GR value: 0.879 GR
Neratinib/HKI272 [6]; 0.1 µM
  GR value: 0.951 GR
Neratinib/HKI272 [6]; 0.3162 µM
  GR value: 0.823 GR
Neratinib/HKI272 [6]; 1 µM
  GR value: 0.846 GR
Neratinib/HKI272 [6]; 3.162 µM
  GR value: 0.456 GR
Flavopiridol [7]; 0.0001 µM
  GR value: 0.986 GR
Flavopiridol [7]; 0.0003162 µM
  GR value: 0.927 GR
Flavopiridol [7]; 0.001 µM
  GR value: 0.962 GR
Flavopiridol [7]; 0.003162 µM
  GR value: 0.855 GR
Flavopiridol [7]; 0.01 µM
  GR value: 0.897 GR
Flavopiridol [7]; 0.03162 µM
  GR value: 0.814 GR
Flavopiridol [7]; 0.1 µM
  GR value: 0.591 GR
Flavopiridol [7]; 0.3162 µM
  GR value: 0.182 GR
Flavopiridol [7]; 1 µM
  GR value: -0.439 GR
